# Measured values from patent US20230357253A1, “AGONISTS OF STIMULATOR OF INTERFERON GENES STING” (THE SCRIPPS RESEARCH INSTITUTE, priority 2020, published 2023).
# pEC50, pIC50: −log10 of the molar value.
# Experiments:
# human STING protein = human STING protein (Homo sapiens (Human), UniProt Q86WV6); test: WT STING binding assay (HTRF, competition with labeled 2′3′cGAMP); conditions: recombinant 6×His-tagged human STING, three hours at room temperature
# Experimental: WT STING binding assay (Cisbio, Catalog #64BDSTGPEH). […] Upon proximity of the two dyes, the excitation of the donor by the flash lamp on the PHERAstar FSX plate reader triggers a Fluorescence Resonance Energy Transfer (FRET) towards the acceptor, which in turn fluoresces at 665 nm. To assess the ability of the synthetic small molecule STING ligands to bind to human STING, a competitive assay format was applied. A 10-point titration of each of the synthetic ligands in 5 uL were transferred into a 384 well plate, followed by 20 uL of assay buffer containing the 6×His-tagged human STING protein and labeled 2′3′cGAMP ligand and incubated for three hours at room temperature. The raw values obtained from the PHERAstar were used to calculate the reported IC50 values (the signal is inversely proportional to the binding of the synthetic ligand) through curve fitting in Genedata. The percent inhibition was calculated based upon the maximal amount of binding by synthetic compound versus the maximum binding of unlabeled 2′3′ cGAMP which was used as a control in each assay.
# THP-1 Lucia ISG cells = test: ISRE-luciferase assay (ISG-LUC activation); type: cell-based; conditions: Homo sapiens, THP1-Lucia ISG, 24 hours, luciferase reporter
# Experimental: ISRE-luciferase assay. THP-1 Lucia ISG cells were resuspended in low-serum growth media (2% FBS) at a density of 5×10^5 cells/ml and treated with test article or vehicle (DMSO). 50 μL of cells were seeded into each well of a 384-well white greiner plates and incubated for 24 hours. To evaluate expression of the luciferase reporter, 30 μl of Quanti-luc (Invivogen) detection reagent was added to each well and luminescence was read using an Envision plate reader (Perkin Elmer) set with an integration time of 0.1 seconds. For each cell type, luminescence signals for test article samples were normalized to vehicle-treated samples and reported as relative light units (RLU).
# Chain of human STING protein (Q86WV6 whole entry): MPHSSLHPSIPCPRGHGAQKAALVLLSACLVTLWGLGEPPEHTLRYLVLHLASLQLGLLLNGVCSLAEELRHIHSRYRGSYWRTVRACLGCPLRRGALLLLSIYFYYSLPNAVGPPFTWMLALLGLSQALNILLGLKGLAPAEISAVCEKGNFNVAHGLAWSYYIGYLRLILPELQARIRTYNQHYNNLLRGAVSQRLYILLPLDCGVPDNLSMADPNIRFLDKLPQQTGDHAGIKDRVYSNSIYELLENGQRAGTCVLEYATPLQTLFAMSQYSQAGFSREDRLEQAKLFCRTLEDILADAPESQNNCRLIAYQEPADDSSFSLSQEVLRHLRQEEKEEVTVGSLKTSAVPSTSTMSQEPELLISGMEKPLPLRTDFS
SMILES,pIC50 (human STING protein),pEC50 (THP-1 Lucia ISG cells)
"O=C(Nc1cc(CCOc2cc(NC(=O)c3ccc4nnnn4n3)c(C(=O)O)cc2F)c(F)cc1C(=O)O)c1ccc(-n2ccnc2)nn1 [Compound 2, 2-(6-(1H-imidazol-1-yl)pyridazine-3-carboxamido)-4-(2-(4-carboxy-2-fluoro-5-(tetrazolo[1,5-b]pyridazine-6-carboxamido)phenoxy)ethyl)-5-fluorobenzoic acid]",7.00 to 8.00,> 7.30
"O=C(Nc1cc(C[S+]([O-])Cc2cc(NC(=O)c3ccc(-n4ccnc4)nn3)c(C(=O)O)cc2F)c(F)cc1C(=O)O)c1ccc(-n2ccnc2)nn1 [Compound 7, 4,4′-(sulfinylbis(methylene))bis(2-(6-(1H-imidazol-1-yl)pyridazine-3-carboxamido)-5-fluorobenzoic acid)]",7.00 to 8.00,5.30 to 6.30
"CN(Cc1cc(NC(=O)c2ccc(-n3ccnc3)nn2)c(C(=O)O)cc1F)Cc1cc(NC(=O)c2ccc(-n3ccnc3)nn2)c(C(=O)O)cc1F [Compound 8, 4,4′-((methylazanediyl)bis(methylene))bis(2-(6-(1H-imidazol-1-yl)pyridazine-3-carboxamido)-5-fluorobenzoic acid)]",> 8.00,5.30 to 6.30
O=C(Nc1cc(OCCCCOc2cc(NC(=O)c3ccc4nnnn4n3)c(C(=O)O)cc2F)c(F)cc1C(=O)O)c1ccc2nnnn2n1 [Compound 12],6.00 to 7.00,6.30 to 7.30
O=C(Nc1cc(OCCCCOc2ccc(C(=O)O)c(NC(=O)c3ccc(-n4ccnc4)nn3)c2)ccc1C(=O)O)c1ccc(-n2ccnc2)nn1 [Compound 16],6.00 to 7.00,< 5.30
O=C(Nc1cc(OCCCCOc2cc(NC(=O)c3ccc(-n4ccnc4)nn3)c(C(=O)O)cc2F)c(F)cc1C(=O)O)c1ccc(-n2ccnc2)nn1 [Compound 17],6.00 to 7.00,5.30 to 6.30
O=C(Nc1cc(OCCCCOc2cc(NC(=O)c3ccc(-n4ccnc4)nn3)c(C(=O)O)cc2F)c(F)cc1C(=O)O)c1ccc(O)nn1 [Compound 18],6.00 to 7.00,< 5.30
O=C(Nc1cc(OCCCCOc2ccc(C(=O)O)c(NC(=O)c3ccc4nnnn4n3)c2)ccc1C(=O)O)c1ccc(-n2ccnc2)nn1 [Compound 20],6.00 to 7.00,< 5.30
O=C(Nc1cc(OCCCCOc2cc(NC(=O)c3ccc4nnnn4n3)c(C(=O)O)cc2F)c(F)cc1C(=O)O)c1ccc(-n2ccnc2)nn1 [Compound 22],6.00 to 7.00,< 5.30
O=c1oc(-c2ccc(-n3ccnc3)nn2)nc2cc(OCCCCOc3cc4nc(-c5ccc(-n6ccnc6)nn5)oc(=O)c4cc3F)ccc12 [Compound 46],6.00 to 7.00,5.30 to 6.30
COC(=O)c1ccc(CCCc2ccc(C(=O)O)c(NC(=O)c3ccc(-n4ccnc4)nn3)c2)cc1NC(=O)c1ccc(-n2ccnc2)nn1 [Compound 47],6.00 to 7.00,5.30 to 6.30
O=C(Nc1cc(CCCc2ccc(C(=O)O)c(NC(=O)c3ccc(-n4ccnc4)nn3)c2)ccc1C(=O)O)c1ccc(-n2ccnc2)nn1 [Compound 48],7.00 to 8.00,6.30 to 7.30
COc1cc(C(=O)O)c(NC(=O)c2ccc(-n3ccnc3)nn2)cc1OCCCCOc1ccc(C(=O)O)c(NC(=O)c2ccc(-n3ccnc3)nn2)c1 [Compound 49],6.00 to 7.00,< 5.30
O=C(Nc1cc(OCCCCOc2cc(NC(=O)c3ccc(-n4ccnc4)nn3)c(C(=O)O)cc2Cl)c(Cl)cc1C(=O)O)c1ccc(-n2ccnc2)nn1 [Compound 50],6.00 to 7.00,5.30 to 6.30
O=C(Nc1cc(CCCc2cc(NC(=O)c3ccc(-n4ccnc4)nn3)c(C(=O)O)nc2Cl)c(F)cc1C(=O)O)c1ccc(-n2ccnc2)nn1 [Compound 52],7.00 to 8.00,6.30 to 7.30
O=C(Nc1cc(CCCc2ccc(NC(=O)c3ccc(-n4ccnc4)nn3)c(C(=O)O)c2)ccc1C(=O)O)c1ccc(-n2ccnc2)nn1 [Compound 55],7.00 to 8.00,5.30 to 6.30
O=C(Nc1cc(OCCCCOc2ccc(C(=O)O)c(NC(=O)c3ccc4nnnn4n3)c2)c(F)cc1C(=O)O)c1ccc(-n2ccnc2)nn1 [Compound 57],7.00 to 8.00,< 5.30
COc1cc(C(=O)O)c(NC(=O)c2ccc(-n3ccnc3)nn2)cc1OCCCCOc1cc(NC(=O)c2ccc(-n3ccnc3)nn2)c(C(=O)O)cc1F [Compound 58],6.00 to 7.00,5.30 to 6.30
COC(=O)c1ccc(OCCCCOc2cc(NC(=O)c3ccc4nnnn4n3)c(C(=O)O)cc2F)cc1NC(=O)c1ccc(-n2ccnc2)nn1 [Compound 62],6.00 to 7.00,< 5.30

SMILES,pIC50 (human STING protein),pEC50 (THP-1 Lucia ISG cells)
O=C(Nc1cc(OCCCCOc2cnc(C(=O)O)c(NC(=O)c3ccc(-n4ccnc4)nn3)c2)c(F)cc1C(=O)O)c1ccc2nnnn2n1 [Compound 64],7.00 to 8.00,< 5.30
O=C(Nc1cc(CCCc2cnc(C(=O)O)c(NC(=O)c3ccc(-n4ccnc4)nn3)c2)c(F)cc1C(=O)O)c1ccc(-n2ccnc2)nn1 [Compound 65],7.00 to 8.00,5.30 to 6.30
O=C(Nc1ccc(CCCc2cc(NC(=O)c3ccc(-n4ccnc4)nn3)c(C(=O)O)cc2F)cc1C(=O)O)c1ccc(-n2ccnc2)nn1 [Compound 71],7.00 to 8.00,< 5.30
O=C(Nc1cc(OCCCCOc2cc(NC(=O)c3ccc4nnnn4n3)c(C(=O)O)cc2Cl)ccc1C(=O)O)c1ccc(-n2ccnc2)nn1 [Compound 72],7.00 to 8.00,5.30 to 6.30
O=C(Nc1cc(OCCCCOc2cc(NC(=O)c3ccc4nnnn4n3)c(C(=O)O)cc2F)ccc1C(=O)O)c1ccc(-n2ccnc2)nn1 [Compound 74],7.00 to 8.00,< 5.30
O=C(Nc1cc(CCCc2ccc(C(=O)O)c(NC(=O)c3ccc4nnnn4n3)c2)c(F)cc1C(=O)O)c1ccc(-n2ccnc2)nn1 [Compound 75],6.00 to 7.00,5.30 to 6.30
COC(=O)c1cc(F)c(CCCc2cc(NC(=O)c3ccc4nnnn4n3)c(C(=O)O)cc2F)cc1NC(=O)c1ccc(-n2ccnc2)nn1 [Compound 76],7.00 to 8.00,6.30 to 7.30
O=C(Nc1cc(CCCc2cc(NC(=O)c3ccc4nnnn4n3)c(C(=O)O)cc2Cl)ccc1C(=O)O)c1ccc(-n2ccnc2)nn1 [Compound 77],7.00 to 8.00,6.30 to 7.30
COC(=O)c1ccc(CCCc2cc(C(=O)O)c(NC(=O)c3ccc(-n4ccnc4)nn3)cc2F)cc1NC(=O)c1ccc(-n2ccnc2)nn1 [Compound 79],6.00 to 7.00,6.30 to 7.30
COC(=O)c1nc(Cl)c(CCCc2cnc(C(=O)O)c(NC(=O)c3ccc(-n4ccnc4)nn3)c2)cc1NC(=O)c1ccc(-n2ccnc2)nn1 [Compound 80],7.00 to 8.00,5.30 to 6.30
O=C(Nc1cc(CCCc2cnc(C(=O)O)c(NC(=O)c3ccc(-n4ccnc4)nn3)c2)c(F)cc1C(=O)O)c1ccc2nnnn2n1 [Compound 82],6.00 to 7.00,< 5.30
O=C(Nc1cc(OCCCCOc2cnc(C(=O)O)c(NC(=O)c3ccc4nnnn4n3)c2)c(F)cc1C(=O)O)c1ccc(-n2ccnc2)nn1 [Compound 83],6.00 to 7.00,< 5.30
COc1cc(NC(=O)c2ccc3nnnn3n2)c(C(=O)O)cc1CCCc1ccc(C(=O)O)c(NC(=O)c2ccc(-n3ccnc3)nn2)c1 [Compound 84],6.00 to 7.00,5.30 to 6.30
COc1cc(C(=O)O)c(NC(=O)c2ccc3nnnn3n2)cc1CCCc1cnc(C(=O)O)c(NC(=O)c2ccc(-n3ccnc3)nn2)c1 [Compound 85],6.00 to 7.00,< 5.30
COc1cc(C(=O)O)c(NC(=O)c2ccc3nnnn3n2)cc1CCCc1ccc(C(=O)O)c(NC(=O)c2ccc(-n3ccnc3)nn2)c1 [Compound 86],7.00 to 8.00,6.30 to 7.30
O=C(Nc1cc(CCCc2cc(NC(=O)c3ccc4nnnn4n3)c(C(=O)O)nc2Cl)ccc1C(=O)O)c1ccc(-n2ccnc2)nn1 [Compound 87],7.00 to 8.00,6.30 to 7.30
COC(=O)c1ccc(CCCc2cc(NC(=O)c3ccc4nnnn4n3)c(C(=O)O)cc2F)cc1NC(=O)c1ccc(-n2ccnc2)nn1 [Compound 88],6.00 to 7.00,5.30 to 6.30
O=C(Nc1cc(CCCc2cc(NC(=O)c3ccc4nnnn4n3)c(C(=O)O)cc2F)ccc1C(=O)O)c1ccc(-n2ccnc2)nn1 [Compound 89],7.00 to 8.00,6.30 to 7.30
